The record followed here is US5374649A, “Indole derivatives and pharmaceutical use thereof” (Glaxo S.p.A., priority 1992, dated 1994).

Assay [1] deals with T1, strychnine insensitive glycine binding site located on the NMDA receptor complex (Rattus norvegicus, UniProt P35439).
T1 construct: from tissue
The assay is described as follows: affinity for strychnine insensitive glycine binding site (procedure of Kishimoto H. et al.). Particulars: procedure of Kishimoto H. et al. J. Neurochem 1981, 37, 1015-1024. The protocol: The potent and selective action of the compounds of the invention at the strychnine- insensitive glycine binding site present on the NMDA receptor complex may be readily determined using conventional test procedures. Thus the ability to bind at the strychnine insensitive glycine binding site was determined using the procedure of Kishimoto H et al. J Neurochem 1981, 37 1015-1024. The selectivity of the action of compounds of the invention for the strychnine insensitive glycine site was confirmed in studies at other ionotropic known excitatory amino acid receptors.
The affinity of the compound of the invention for strychnine insensitvie glycine binding site was determined using the procedure of Kishimoto H. et al J. Neurochem 1981, 37, 1015-1024.

For a further assay, the system named is NMDA induced convulsions. Nature of the assay: inhibition of NMDA induced convulsions in mice (procedure of Chiamulera C et al.). It is filed as in vivo. Particulars: mouse; iv administration; intracerebroventricular injection of NMDA; read-out: ED50 (dose required to protect 50% of the animals from the convulsive action of NMDA). The protocol:
The ability of compounds of the invention to inhibit NMDA included convulsions in the mouse was determined using the procedure of Chiamulera C et al. Psychopharmacology 1990, 102, 551-552. In this test the ability of the compound to inhibit the generalized seizures induced by an intracerebroventricular injection of NMDA in mice was examined at a number of dose levels. […] This expressed as mg/kg is referred to as the ED50 value.

The pKi is −log10 of the Ki, conventionally taken in molar units. Turning to `O=C(/C=C/c1c(C(=O)O)[nH]c2cc(Cl)cc(Cl)c12)Nc1ccccc1O` [Example 2e, (E) 3-[2-(2-Hydroxyphenylaminocarbonyl)ethenyl]-4,6-dichloroindole-2-carboxylic acid], the pKi in assay [1] came to 8.4.
Usually ED50 stands for the dose that gives a 50% effect, or the effect in half of the subjects. Compound `COc1ccc(NC(=O)/C=C/c2c(C(=O)O)[nH]c3cc(Cl)cc(Cl)c23)cc1OC` [Example 2f, (E) 3-[2-(3,4-Dimethoxyphenylaminocarbonyl)ethenyl]-4,6-dichloroindole-2-carboxylic acid] gave a pKi in assay [1] of 8.1. The 50% effective dose (ED50) in the assay with NMDA induced convulsions was determined as 0.3 mg/kg.
Take `CCOc1ccc(NC(=O)/C=C/c2c(C(=O)O)[nH]c3cc(Cl)cc(Cl)c23)cc1` [Example 2g, (E) 3-[2(4-Ethoxyphenylaminocarbonyl)ethenyl]-4,6-dichloroindole-2-carboxylic acid]: in assay [1], the negative-log Ki (pKi) is on record as 8.3. The ED50 in the assay on NMDA induced convulsions was found to be 0.1 mg/kg.
On the same counts, the results for `O=C(/C=C/c1c(C(=O)O)[nH]c2cc(Cl)cc(Cl)c12)Nc1ccc(F)cc1F` [Example 2h, (E) 3-[2-(2,4-Difluorophenylaminocarbonyl)ethenyl]-4,6-dichloroindole-2-carboxylic acid] are 8.3 and 0.3 mg/kg.
In assay [1], `O=C(/C=C/c1c(C(=O)O)[nH]c2cc(Cl)cc(Cl)c12)Nc1cc([N+](=O)[O-])ccc1O` [Example 2i] showed a negative-log Ki (pKi) of 8.0.
